Data as given in US20060100187A1, “Synergistic combinations of macrolide t-cell modulator or immunosuppressant and a retinoid” (priority 2003, published 2006).

Assays:
[1] = system: allogeneic kidney transplantation; conditions: oral administration; cited from earlier work
[2] = system: DNFB-elicited allergic contact dermatitis (contact hypersensitivity reaction); conditions: for Efficacy, global mean of differences in scores of untreated and treated test sites: erythema and induration scored 24 hours after DNFB challenge, 80 mg formulation topically at 30 minutes and 6 hours after challenge, 1% Elidel cream, 0.1% Zorac gel; for Efficacy %, single drug treatment with pimecrolimus set to 100%: relative to pimecrolimus/pimecrolimus, topical at 30 minutes and 6 hours after challenge, scored at 24 hours
Experimental: 12 days before elicitation of ACD, 17 male domestic pigs receive 500 μl of 10% 2,4-dinitrofluorobenzene (DNFB) dissolved in dimethylsulfoxide/acetone/olive oil (1:5:3 v/v/v) epicutaneously in divided volumes onto the base of both ears and onto both groins (100 μl/site) for sensitization. The challenge reaction is elicited with 15 μl of DNFB 1.0% on test sites (7 cm^2 in size) arranged on both sides of the shaved dorsolateral back.
The test sites on the right dorsolateral side are treated with 80 mg formulation twice whereas the left controlateral test sites remain untreated for comparison. The test sites are treated 30 minutes after challenge, followed by the second application at 6 hours of the same drug or, in case of combination, the other drug.

| Compound | minimum effective dose (MED) [1] [mg/kg] | Efficacy, global mean of differences in scores of untreated and treated test sites [2] | Efficacy %, single drug treatment with pimecrolimus set to 100% [2] [%] | superiority in comparison with tazarotene/tazarotene treatment ([2]; difference of relative efficacy %) [%] | inhibition of the contact hypersensitivity reaction ([2]; single drug treatment, two topical applications, scored 24 hours after challenge) [%] |
| --- | --- | --- | --- | --- | --- |
| C=CC[C@@H]1/C=C(\C)C[C@H](C)C[C@H](OC)[C@H]2O[C@@](O)(C(=O)C(=O)N3CCCC[C@H]3C(=O)O[C@H](/C(C)=C/[C@@H]3CC[C@@H](O)[C@H](OC)C3)[C@H](C)[C@@H](O)CC1=O)[C@H](C)C[C@@H]2OC [tacrolimus] | 14 |  |  |  |  |
| CCOC(=O)c1ccc(C#Cc2ccc3c(c2)C(C)(C)CCS3)nc1 [tazarotene] |  | 2.96 | 89 |  |  |
| {[1E-(1R,3R,4S)]}1R,9S,12S, 13R,14S,17R,18E,21S,23S,24R,25S,27R}-12-[2-(4-chloro-3-methoxycyclohexyl)-1-methylvinyl]-17-ethyl-1,14-dihydroxy-23,25-dimethoxy-13,19,21,27-tetramethyl-11, 28,dioxa-4-azatricyclo [22.3.1.0(4,9)]octacos-18-ene-2,3,10,16-tetraone [pimecrolimus] |  | 3.34 | 100 | 11 | 57 |
